Values joined by “and” are separate entries in the source; they are usually repeats but may differ in a detail not shown here. Identical values can stand only once. Like-named read-outs stand apart in the source and are kept apart here.
Legend:
BMDCs = experiment: LDH release (lytic cell death, pyroptosis) from LPS-primed BMDCs; assay type: cell-based, mouse; conditions: for Average (% positive control): LDH release; for cytotoxicity at 25 µM / cytotoxicity at 50 µM / cytotoxicity at 100 µM / cytotoxicity at 20 µM / cytotoxicity at 40 µM / cytotoxicity at 80 µM: Mus musculus, BMDC; for cytotoxicity at 25 µM / cytotoxicity at 50 µM: EN11 series table
Experimental: (§1) This was tested in cell culture in several different in vitro assays classically used to investigate inflammasome activation. These include measuring inflammasome-dependent lytic cell death (pyroptosis) by detecting release of the cytosolic enzyme lactate dehydrogenase (LDH) using a commercial colorimetric assay and release of proinflammatory cytokines like IL-1β by enzyme-linked immunosorbent assay (ELISA), analyzing cleavage and activation of caspase-1 and IL-1β by immunoblotting and immunofluorescence imaging of ASC speck formation. Lytic cell death was determined via LDH release. Assay results for compounds are illustrated in the Tables below, wherein the concentration of the compounds tested had been 50 μM or as indicated in the table, and the concentration of the known activators has been tested with 5 μM of nigericin, 100 μM of each R837 and CL097. For classification of the activity of a given molecule, release of IL-1β was quantified as % of IL-1% of a respective control activator used for the experiment (highlighted in tables with bold letters). The compounds listes in Table 1 were classified into 4 groups depending on their ability to induce the NLRP3 inflammasome activation, assessed by % IL-1β release as compared to the positive control.
(§2) Mouse bone marrow-derived dendritic cells (BMDCs) were isolated from femurs and tibias previously described (Gross, Olaf, 2012, “Measuring the inflammasome”, Methods in molecular biology, Clifton, N.J., 844, pp. 199-222.). In brief, tibias and femurs were carefully removed and put to sterile 70% ethanol for 1 minute. Using a 22-G needle attached to a 20 ml-syringe filled with sterile flushing medium, the bone marrow was pressed through the mesh of a […] cell strainer. The cells were spun down by centrifugation at 400×g, 4° C. for 5 minutes and red blood cells lysed by resuspension and incubation for 5 minutes at room temperature in RBC lysis buffer. 9 ml of flushing medium were added and cells were again spun down by centrifugation at 400×g, 4° C. for 5 minutes. Cells were then resuspended in BMDC medium (RPMI, 10% fetal bovine serum, 1% penicillin-streptomycin100 U/ml, 20 ng/ml recombinant murine GM-CSF), counted and plated at a density of 0.5×10^6 cells ml^−1 in 10 ml medium and incubated at 37° C., 5% CO2 in a humidified incubator. After 2 days, 10 ml of fresh medium were added to the cells and after 4 days, the medium was fully exchanged to 20 ml of fresh medium. The cells were allowed to differentiate for 6 to 8 days before usage.
(§3) For canonical inflammasome activation BMDCs after 7-9 days of differentiation were harvested and counted with a Neubauer Chamber (Hecht Assistant) and the concentration was set to 1 Mio cells ml^−1. 100 μl cell suspension per well were seeded in 96-well plates. The cells were primed with 50 ng ml^−1 E. coli K12 ultra-pure LPS for 3 hours and subsequently treated with canonical inflammasome activators or experimental compounds for 3 hours if not indicated differently (incubation time FIG. 4D, 5, 7, 8, 11, 13-18: 3 h, FIG. 12: 4 h). Concentrations of the stimuli were as follows if not indicated differently: 5 μM nigericin, 100 μM imiquimod (also known as R837), 100 μM CL097, 100 μM R848, […] poly(dA:dT), 300 μg ml^−1 MSU. If an inhibitor was used before stimuli treatment, the inhibitor was added after 2.5 hours of priming and it was incubated for 30 minutes before inflammasome activation. Inhibitors were used as follows: 3 μM MCC950, 45 mM KCl, 30 μM ebselen (2-Phenyl-1,2-benzoselenazol-3-one), 5 μM cytochalasin D (see FIGS. 8, 11, 12 and 17).
(§4) All inflammasome stimulations were performed in three technical replicates for each condition. […]

NLRP3 inflammasome = biological target: T1, NLRP3 inflammasome (Mus musculus, UniProt Q8R4B8); experiment: IL-1β release from LPS-primed BMDCs (ELISA) as readout of NLRP3 inflammasome activation; assay type: cell-based; conditions: for IL-1β: individual replicate values; for Average (% positive control): IL-1β
T1 construct: endogenous in cells; host or cells: primary mouse bone marrow-derived dendritic cells (BMDCs), LPS-primed
T1 sequence (Q8R4B8 whole entry): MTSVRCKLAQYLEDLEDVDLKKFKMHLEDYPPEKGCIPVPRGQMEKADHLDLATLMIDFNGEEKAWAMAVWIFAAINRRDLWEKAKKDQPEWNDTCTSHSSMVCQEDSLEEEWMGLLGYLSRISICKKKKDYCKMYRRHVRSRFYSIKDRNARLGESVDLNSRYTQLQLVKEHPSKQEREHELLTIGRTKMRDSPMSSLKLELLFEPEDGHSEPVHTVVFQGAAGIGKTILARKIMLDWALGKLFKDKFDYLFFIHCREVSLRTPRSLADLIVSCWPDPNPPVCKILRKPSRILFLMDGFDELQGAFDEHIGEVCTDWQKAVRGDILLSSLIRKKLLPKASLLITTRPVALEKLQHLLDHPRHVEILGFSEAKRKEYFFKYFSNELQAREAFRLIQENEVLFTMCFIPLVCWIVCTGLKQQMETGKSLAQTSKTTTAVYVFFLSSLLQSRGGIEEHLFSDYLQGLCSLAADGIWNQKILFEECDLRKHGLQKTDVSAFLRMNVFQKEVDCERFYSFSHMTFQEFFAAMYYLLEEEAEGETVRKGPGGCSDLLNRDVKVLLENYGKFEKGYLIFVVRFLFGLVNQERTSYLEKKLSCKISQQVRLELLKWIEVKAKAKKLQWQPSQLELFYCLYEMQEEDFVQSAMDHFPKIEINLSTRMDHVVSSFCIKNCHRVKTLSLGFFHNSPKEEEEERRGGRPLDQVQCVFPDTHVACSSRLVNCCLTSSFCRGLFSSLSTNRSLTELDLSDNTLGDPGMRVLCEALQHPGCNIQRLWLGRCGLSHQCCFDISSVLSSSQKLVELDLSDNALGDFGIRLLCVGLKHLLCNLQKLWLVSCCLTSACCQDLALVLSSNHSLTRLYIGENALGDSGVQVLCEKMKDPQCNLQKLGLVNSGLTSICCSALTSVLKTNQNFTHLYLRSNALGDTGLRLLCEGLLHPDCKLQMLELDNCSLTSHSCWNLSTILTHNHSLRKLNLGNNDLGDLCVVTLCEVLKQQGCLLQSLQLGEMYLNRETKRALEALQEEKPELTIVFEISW
Experimental: as §1, §2, §3, §4

[1] = 25 μM, positive control EN22 25 μM
[2] = 50 μM, positive control EN22 25 μM
[3] = 100 μM, positive control EN22 25 μM
[4] = 25 μM, read-out: Average LDH release (% of max.)
[5] = 25 μM, individual replicate values, read-out: LDH release (% of max.)
[6] = 50 μM, read-out: Average LDH release (% of max.)
[7] = 50 μM, individual replicate values, read-out: LDH release (% of max.)
[8] = 100 μM, individual replicate values, read-out: LDH release (% of max.)
[9] = 100 μM, read-out: Average LDH release (% of max.)
[10] = 20 μM, positive control EN22 20 μM
[11] = 40 μM, positive control EN22 20 μM
[12] = 80 μM, positive control EN22 20 μM
[13] = 20 μM, individual replicate values, read-out: LDH release (% of max.)
[14] = 20 μM, read-out: Average LDH release (% of max.)
[15] = 40 μM, individual replicate values, read-out: LDH release (% of max.)
[16] = 40 μM, read-out: Average LDH release (% of max.)
[17] = 80 μM, individual replicate values, read-out: LDH release (% of max.)
[18] = 80 μM, read-out: Average LDH release (% of max.)

Row | Structure (SMILES) | Average IL-1β (NLRP3 inflammasome; 25 μM, EN11 series table) | Average IL-1β (NLRP3 inflammasome; 50 μM, EN11 series table) | Average IL-1β (NLRP3 inflammasome; 100 μM) | Average (% positive control) (NLRP3 inflammasome; [1]) | Average (% positive control) (NLRP3 inflammasome; [2]) | Average (% positive control) (NLRP3 inflammasome; [3]) | Average (% positive control) (BMDCs; [1]) | Average (% positive control) (BMDCs; [2]) | Average (% positive control) (BMDCs; [3]) | cytotoxicity at 25 µM (BMDCs; [4]) | cytotoxicity at 25 µM (BMDCs; [5]) | cytotoxicity at 50 µM (BMDCs; [6]) | cytotoxicity at 50 µM (BMDCs; [7]) | cytotoxicity at 100 µM (BMDCs; [8]) | cytotoxicity at 100 µM (BMDCs; [9]) | IL-1β (NLRP3 inflammasome; 25 μM, EN11 series table) | IL-1β (NLRP3 inflammasome; 50 μM, EN11 series table) | IL-1β (NLRP3 inflammasome; 100 μM) | Average (% positive control) (BMDCs; [10]) | Average (% positive control) (BMDCs; [11]) | also measured
1 | O=C(NCc1ccccc1)NCc1ccc2ncccc2c1 [EN11-11, 3-benzyl-1-[(quinolin-6-yl)methyl]urea] | 0.000 ng/mL | 0.014 ng/mL | 0.011 ng/mL | 0.000 % positive control | 0.975 % positive control | 0.761 % positive control | 8.741 % positive control | 8.257 % positive control | 10.723 % positive control | 4.45% |  | 4.2% |  | 5.91% | 5.45% | 0.000 ng/mL | 0.021 ng/mL and 0.022 ng/mL and 0.000 ng/mL | 0.012 ng/mL and 0.021 ng/mL and 0.000 ng/mL |  |  | 
2 | O=C(NCc1ccccc1)Nc1ccc2ncccc2c1 [EN11-16, 1-benzyl-3-(quinolin-6-yl)urea] | 0.008 ng/mL | 0.060 ng/mL | 0.325 ng/mL | 0.555 % positive control | 4.074 % positive control | 22.016 % positive control | 15.222 % positive control | 16.245 % positive control | 24.607 % positive control | 7.74% | 7.87% | 8.26% | 8.33% | 14.2% | 12.5% | 0.010 ng/mL and 0.014 ng/mL and 0.000 ng/mL | 0.068 ng/mL and 0.054 ng/mL and 0.058 ng/mL | 0.334 ng/mL and 0.324 ng/mL and 0.315 ng/mL |  |  | 
3 | O=C(Nc1ccccc1)Nc1ccc2ncccc2n1 [JB002, 1-(1,5-naphthyridin-2-yl)-3-phenylurea] |  |  |  |  |  |  |  |  |  |  |  |  |  |  |  |  |  |  | 13.887 % positive control | 17.760 % positive control | Average (% positive control) (BMDCs; [12]): 30.084 % positive control; cytotoxicity at 20 µM (BMDCs; [13]): 7.72%; cytotoxicity at 20 µM (BMDCs; [14]): 7.4%; cytotoxicity at 40 µM (BMDCs; [15]): 9.38%; cytotoxicity at 40 µM (BMDCs; [16]): 9.46%; cytotoxicity at 80 µM (BMDCs; [17]): 14%; cytotoxicity at 80 µM (BMDCs; [18]): 16%; Average IL-1β (NLRP3 inflammasome; 20 μM): 0.045 ng/mL; IL-1β (NLRP3 inflammasome; 20 μM): 0.038 ng/mL and 0.050 ng/mL and 0.047 ng/mL; Average IL-1β (NLRP3 inflammasome; 40 μM): 0.192 ng/mL; IL-1β (NLRP3 inflammasome; 40 μM): 0.190 ng/mL and 0.197 ng/mL and 0.1902 ng/mL; Average IL-1β (NLRP3 inflammasome; 80 μM): 0.503 ng/mL; IL-1β (NLRP3 inflammasome; 80 μM): 0.464 ng/mL and 0.505 ng/mL and 0.540 ng/mL; Average (% positive control) (NLRP3 inflammasome; 20 μM, positive control EN22): 2.292 % positive control; Average (% positive control) (NLRP3 inflammasome; 40 μM, positive control EN22): 9.827 % positive control; Average (% positive control) (NLRP3 inflammasome; 80 μM, positive control EN22): 25.697 % positive control
4 | O=C(Nc1ccccc1)Nc1ccc2ncc(Br)cc2c1 [JB004, 1-(3-bromoquinolin-6-yl)-3-phenylurea] |  |  |  |  |  |  |  |  |  |  |  |  |  |  |  |  |  |  | 39.589 % positive control | 51.749 % positive control | Average (% positive control) (BMDCs; [12]): 68.244 % positive control; cytotoxicity at 20 µM (BMDCs; [13]): 31%; cytotoxicity at 20 µM (BMDCs; [14]): 21.1%; cytotoxicity at 40 µM (BMDCs; [15]): 25.6%; cytotoxicity at 40 µM (BMDCs; [16]): 27.6%; cytotoxicity at 80 µM (BMDCs; [17]): 34.3%; cytotoxicity at 80 µM (BMDCs; [18]): 36.4%; Average IL-1β (NLRP3 inflammasome; 20 μM): 0.971 ng/mL; IL-1β (NLRP3 inflammasome; 20 μM): 0.966 ng/mL and 0.765 ng/mL and 1.182 ng/mL; Average IL-1β (NLRP3 inflammasome; 40 μM): 1.507 ng/mL; IL-1β (NLRP3 inflammasome; 40 μM): 1.350 ng/mL and 1.479 ng/mL and 1.691 ng/mL; Average IL-1β (NLRP3 inflammasome; 80 μM): 1.657 ng/mL; IL-1β (NLRP3 inflammasome; 80 μM): 1.684 ng/mL and 1.413 ng/mL and 1.876 ng/mL; Average (% positive control) (NLRP3 inflammasome; 20 μM, positive control EN22): 49.601 % positive control; Average (% positive control) (NLRP3 inflammasome; 40 μM, positive control EN22): 76.971 % positive control; Average (% positive control) (NLRP3 inflammasome; 80 μM, positive control EN22): 84.675 % positive control

The next lines start with results.

Row | Average IL-1β (NLRP3 inflammasome; 25 μM, EN11 series table) | Average IL-1β (NLRP3 inflammasome; 50 μM, EN11 series table) | Average IL-1β (NLRP3 inflammasome; 100 μM) | Average (% positive control) (NLRP3 inflammasome; [1]) | Average (% positive control) (NLRP3 inflammasome; [2]) | Average (% positive control) (NLRP3 inflammasome; [3]) | Structure (SMILES) | Average (% positive control) (BMDCs; [1]) | Average (% positive control) (BMDCs; [2]) | Average (% positive control) (BMDCs; [3]) | cytotoxicity at 25 µM (BMDCs; [4]) | cytotoxicity at 25 µM (BMDCs; [5]) | cytotoxicity at 50 µM (BMDCs; [6]) | cytotoxicity at 50 µM (BMDCs; [7]) | cytotoxicity at 100 µM (BMDCs; [8]) | cytotoxicity at 100 µM (BMDCs; [9]) | IL-1β (NLRP3 inflammasome; 25 μM, EN11 series table) | IL-1β (NLRP3 inflammasome; 50 μM, EN11 series table) | IL-1β (NLRP3 inflammasome; 100 μM) | Average (% positive control) (BMDCs; [10]) | Average (% positive control) (BMDCs; [11]) | also measured
5 | 0.000 ng/mL | 0.000 ng/mL | 0.053 ng/mL | 0.000 % positive control | 0.000 % positive control | 3.621 % positive control | O=C(NCCc1ccccc1)Nc1ccc2ncccc2c1 [EN11-07, 1-(2-phenylethyl)-3-(quinolin-6-yl)urea] | 27.283 % positive control | 28.451 % positive control | 26.529 % positive control | 13.9% | 13.4% | 14.5% | 14.4% | 11.4% | 13.5% | 0.000 ng/mL | 0.000 ng/mL | 0.059 ng/mL and 0.052 ng/mL and 0.049 ng/mL |  |  | 
6 | 0.011 ng/mL | 0.067 ng/mL | 0.297 ng/mL | 0.764 % positive control | 4.560 % positive control | 20.130 % positive control | O=C(NCCCc1ccccc1)Nc1ccc2ncccc2c1 [EN11-13, 1-(3-phenylpropyl)-3-(quinolin-6-yl)urea] | 15.011 % positive control | 20.209 % positive control | 31.963 % positive control | 7.63% | 7.55% | 10.3% | 10.4% | 19.3% | 16.3% | 0.000 ng/mL and 0.011 ng/mL and 0.023 ng/mL | 0.067 ng/mL | 0.243 ng/mL and 0.331 ng/mL and 0.316 ng/mL |  |  | 

Reference: patent US20240277658A1, “NLRP3 ACTIVATORS FOR USE IN THE TREATMENT OF INFECTIOUS DISEASES OR CANCER BY ACTIVATING NLRP3 INFLAMMASOME” (ALBERT-LUDWIGS-UNIVERSITÄT FREIBURG, priority 2020, published 2024)
